Data published in patent publication US20200288721A1, “PESTICIDAL COMPOSITION COMPRISING AN OXIME CARBAMATE AND USE THEREOF” (priority 2017, published 2020).

Test: Stability Test: storage of SL formulations in sealed bottles at 54° C. for 14 days
Format: physicochemical
Conditions: acid at 1% (Table 1) or 1-3% (Table 3) in 24% oxamyl SL
Description: (§1) Samples of the compositions summarised in Table 1 above were packaged in commercially available 500 ml fluorinated plastic bottles and the bottles sealed. The bottles were stored at 54° C. for 14 days. Thereafter, the bottles were cooled to room temperature and their appearance assessed. The concentration of the active ingredient, oxamyl, in each bottle was measured.
as §1, with “Table 3” for “Table 1”

Structure (SMILES)	stabilisation / chemical degradation of the oxamyl active ingredient (in words)
CC(=O)O [Acetic acid]	significantly reduced the chemical degradation
OB(O)O [boric acid]	not effective in stabilising the oxamyl active ingredient
O=C(O)CC(O)(CC(=O)O)C(=O)O [citric acid]	significantly reduced the chemical degradation
Cl [hydrochloric acid]	significantly reduced the chemical degradation
O=P(O)(O)O [phosphoric acid]	significantly reduced the chemical degradation
